Reference: US8883782B2, “Spiro-tetracyclic ring compounds as beta-secretase modulators and methods of use” (Amgen Inc., priority 2010, dated 2014)

Assays:
[1] = system: Aβ40 in conditioned medium of cells stably expressing Amyloid Precursor Protein (APP); experiment: In vitro BACE cell-based assay (Aβ40 in conditioned medium, sandwich ELISA); conditions: Homo sapiens, HEK293, average IC50; read-out: HEK cell assay
Procedure, shortened: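 The sandwich ELISA pairs pAb40 capture (3 h, 4 °C) with 6E10 detection (2 h, 4 °C) and a streptavidin-europium TRF read-out. Supernatants come from APP-expressing cells grown in 10% FBS DMEM.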

[2] = target: Beta Secretase enzyme (BACE) (Homo sapiens, UniProt P56817); experiment: In vitro enzymatic BACE FRET (fluorescence resonance energy transfer) assay; type: biochemical; conditions: average IC50, enzyme assay; read-out: BACE 1 FRET assay
Beta Secretase enzyme (BACE), sequence (P56817 46-501, species assumed): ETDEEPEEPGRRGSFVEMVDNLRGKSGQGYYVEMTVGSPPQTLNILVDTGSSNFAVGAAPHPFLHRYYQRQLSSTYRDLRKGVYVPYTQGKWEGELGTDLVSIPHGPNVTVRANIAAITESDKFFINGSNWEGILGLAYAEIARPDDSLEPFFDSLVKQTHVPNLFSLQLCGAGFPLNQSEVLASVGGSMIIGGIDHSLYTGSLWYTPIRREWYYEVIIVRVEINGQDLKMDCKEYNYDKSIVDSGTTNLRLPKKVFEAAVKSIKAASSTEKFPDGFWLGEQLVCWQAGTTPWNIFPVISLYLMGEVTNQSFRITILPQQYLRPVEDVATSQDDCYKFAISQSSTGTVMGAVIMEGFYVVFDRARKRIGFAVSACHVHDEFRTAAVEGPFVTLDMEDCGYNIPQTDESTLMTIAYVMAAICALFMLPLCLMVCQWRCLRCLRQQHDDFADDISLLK
Procedure, shortened: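 Buffer 0.05 M acetate pH 4.2, 10% DMSO final, 100 uM genapol (sub-CMC); start with 50 nM FRET substrate; 1 h incubation; Tris stop; fluorescence read.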

Compound	IC50 [1] [nM]	IC50 [2] [nM]
CC(C)(C#N)COc1cc2c(c(F)c1F)Oc1ccc(-c3cccnc3)cc1[C@@]21COC(N)=N1 [Example 1009, 3-(((4S)-2-amino-3′,4′-difluoro-7′-(3-pyridinyl)spiro[1,3-oxazole-4,9′-xanthen]-2′-yl)oxy)-2,2-dimethylpropanenitrile]	32	1.7
NC1=N[C@]2(CO1)c1cc(-c3cccnc3F)ccc1Oc1c2cc(C2=CCOCC2)c(F)c1F [Example 1010, (4R)-2′-(3,6-dihydro-2H-pyran-4-yl)-3′,4′-difluoro-7′-(2-fluoro-3-pyridinyl)spiro[1,3-oxazole-4,9′-xanthen]-2-amine]	647	9.4
NC1=N[C@@]2(CO1)c1cc(-c3cccnc3F)ccc1Oc1c2cc(C2=CCOCC2)c(F)c1F [Example 1011, (4S)-2′-(3,6-dihydro-2H-pyran-4-yl)-3′,4′-difluoro-7′-(2-fluoro-3-pyridinyl)spiro[1,3-oxazole-4,9′-xanthen]-2-amine]	17	0.5
C[C@@](C#Cc1cnc2c(c1)[C@]1(COC(N)=N1)c1cc(-c3cccnc3F)ccc1O2)(CO)CCl [Example 1015, (2R)-4-((5S)-2′-amino-7-(2-fluoro-3-pyridinyl)spiro[chromeno[2,3-b]pyridine-5,4′-[1,3]oxazol]-3-yl)-2-(chloromethyl)-2-methyl-3-butyn-1-ol]	9	1
NC1=N[C@@]2(CO1)c1cc(I)ccc1Oc1ncc(Br)cc12 [Example 1016, (5S)-3-bromo-7-iodospiro[chromeno[2,3-b]pyridine-5,4′-[1,3]oxazol]-2′-amine]	12	0.7
NC1=N[C@]2(CO1)c1cc(I)ccc1Oc1ncc(Br)cc12 [Example 1017, (5R)-3-bromo-7-iodospiro[chromeno[2,3-b]pyridine-5,4′-[1,3]oxazol]-2′-amine]	886	27600
NC1=N[C@@]2(CO1)c1cc(-c3cccnc3F)ccc1Oc1ncc(Br)cc12 [Example 1018, (5S)-3-bromo-7-(2-fluoro-3-pyridinyl)spiro[chromeno[2,3-b]pyridine-5,4′-[1,3]oxazol]-2′-amine]	563	577
Cc1ccn(-c2cnc3c(c2)[C@]2(COC(N)=N2)c2cc(-c4cccnc4)ccc2O3)n1 [Example 1022, (5S)-3-(3-methyl-1H-pyrazol-1-yl)-7-(3-pyridinyl)spiro[chromeno[2,3-b]pyridine-5,4′-[1,3]oxazol]-2′-amine]	106	7.2
CC1(C)CC(c2cc3c(c(F)n2)Oc2ccc(-c4cccnc4F)cc2[C@@]32CSC(N)=N2)=CCO1 [Example 1034, (5S)-3-(2,2-dimethyl-3,6-dihydro-2H-pyran-4-yl)-1-fluoro-7-(2-fluoro-3-pyridinyl)spiro[chromeno[2,3-c]pyridine-5,4′-[1,3]thiazol]-2′-amine]	5	0.7
CC1(C)C=C(c2cc3c(c(F)n2)Oc2ccc(-c4cccnc4F)cc2[C@]32CSC(N)=N2)CCO1 [Example 1035, (5R)-3-(6,6-dimethyl-3,6-dihydro-2H-pyran-4-yl)-1-fluoro-7-(2-fluoro-3-pyridinyl)spiro[chromeno[2,3-c]pyridine-5,4′-[1,3]thiazol]-2′-amine]	14	1.3
CC1(C)CC(c2cc3c(c(F)n2)Oc2ccc(-c4cccnc4F)cc2[C@]32CSC(N)=N2)=CCO1 [Example 1036, (5R)-3-(2,2-dimethyl-3,6-dihydro-2H-pyran-4-yl)-1-fluoro-7-(2-fluoro-3-pyridinyl)spiro[chromeno[2,3-c]pyridine-5,4′-[1,3]thiazol]-2′-amine]	120	2
NC1=N[C@@]2(CO1)c1cc(-c3cncnc3)c(F)cc1Oc1c(F)cc(C3=CCOCC3)cc12 [Example 1038, (4S)-7′-(3,6-dihydro-2H-pyran-4-yl)-3′,5′-difluoro-2′-(5-pyrimidinyl)spiro[1,3-oxazole-4,9′-xanthen]-2-amine]	10	0.4
NC1=N[C@@]2(CO1)c1cc(C3=CCOCC3)cc(F)c1Oc1ccc(-c3cncnc3)c(F)c12 [Example 1041, (4S)-7′-(3,6-dihydro-2H-pyran-4-yl)-1′,5′-difluoro-2′-(5-pyrimidinyl)spiro[1,3-oxazole-4,9′-xanthen]-2-amine]	≥ 10000	3590
NC1=N[C@]2(CO1)c1cc(C3=CCOCC3)cc(F)c1Oc1ccc(-c3cncnc3)c(F)c12 [Example 1042, (4R)-7′-(3,6-dihydro-2H-pyran-4-yl)-1′,5′-difluoro-2′-(5-pyrimidinyl)spiro[1,3-oxazole-4,9′-xanthen]-2-amine]	117	13.5

Continued by falling IC50 [1], values first:

IC50 [1] [nM]	IC50 [2] [nM]	Compound
1850	59.7	NC1=N[C@]2(CO1)c1cc(-c3cccnc3)ccc1Oc1c2cc(-c2ccnc(F)c2)c(F)c1F [Example 1012, (4R)-3′,4′-difluoro-2′-(2-fluoro-4-pyridinyl)-7′-(3-pyridinyl)spiro[1,3-oxazole-4,9′-xanthen]-2-amine]
1440	6.6	NC1=N[C@@]2(CS1)c1cc(-c3cccnc3F)ccc1Oc1c2cc(Cl)nc1F [Example 1024, (5S)-3-chloro-1-fluoro-7-(2-fluoro-3-pyridinyl)spiro[chromeno[2,3-c]pyridine-5,4′-[1,3]thiazol]-2′-amine]
851	16.5	Cc1ccnn1-c1cnc2c(c1)[C@]1(COC(N)=N1)c1cc(-c3cccnc3F)ccc1O2 [Example 1020, (5S)-7-(2-fluoro-3-pyridinyl)-3-(5-methyl-1H-pyrazol-1-yl)spiro[chromeno[2,3-b]pyridine-5,4′-[1,3]oxazol]-2′-amine]
141	1	NC1=N[C@@]2(CS1)c1cc(-c3cccnc3F)ccc1Oc1c2cc(-c2cccnc2F)nc1F [Example 1025, (5S)-1-fluoro-3,7-bis(2-fluoro-3-pyridinyl)spiro[chromeno[2,3-c]pyridine-5,4′-[1,3]thiazol]-2′-amine]
119	3.5	Cc1ccn(-c2cnc3c(c2)[C@]2(COC(N)=N2)c2cc(-c4cccnc4F)ccc2O3)n1 [Example 1021, (5S)-7-(2-fluoro-3-pyridinyl)-3-(3-methyl-1H-pyrazol-1-yl)spiro[chromeno[2,3-b]pyridine-5,4′-[1,3]oxazol]-2′-amine]
100	2.4	NC1=N[C@@]2(CO1)c1cc(-c3cccnc3)ccc1Oc1c2cc(-c2ccnc(F)c2)c(F)c1F [Example 1013, (4S)-3′,4′-difluoro-2′-(2-fluoro-4-pyridinyl)-7′-(3-pyridinyl)spiro[1,3-oxazole-4,9′-xanthen]-2-amine]
57	1	NC1=N[C@@]2(CO1)c1cc(-c3cccnc3F)ccc1Oc1c(F)cc(OCCF)cc12 [Example 1043, (4S)-4′-fluoro-2′-(2-fluoroethoxy)-7′-(2-fluoro-3-pyridinyl)spiro[1,3-oxazole-4,9′-xanthen]-2-amine]
30	1.5	NC1=N[C@@]2(CO1)c1cc(-c3cncnc3)c(F)cc1Oc1c(F)cc(C3CCOCC3)cc12 [Example 1040, (4S)-3′,5′-difluoro-2′-(5-pyrimidinyl)-7′-(tetrahydro-2H-pyran-4-yl)spiro[1,3-oxazole-4,9′-xanthen]-2-amine]
18	0.4	NC1=N[C@@]2(CS1)c1cc(-c3c(F)ccnc3F)ccc1Oc1cnc(-c3ccnc(F)c3)cc12 [Example 1023, (5S)-7-(2,4-difluoro-3-pyridinyl)-3-(2-fluoro-4-pyridinyl)spiro[chromeno[2,3-c]pyridine-5,4′-[1,3]thiazol]-2′-amine]
14	0.4	NC1=N[C@@]2(CS1)c1cc(-c3cccnc3F)ccc1Oc1c2cc(-c2ccncc2)nc1F [Example 1027, (5S)-1-fluoro-7-(2-fluoro-3-pyridinyl)-3-(4-pyridinyl)spiro[chromeno[2,3-c]pyridine-5,4′-[1,3]thiazol]-2′-amine]
11	0.2	NC1=N[C@@]2(CS1)c1cc(-c3cccnc3F)ccc1Oc1c2cc(C2=CCCCO2)nc1F [Example 1026, (5S)-3-(3,4-dihydro-2H-pyran-6-yl)-1-fluoro-7-(2-fluoro-3-pyridinyl)spiro[chromeno[2,3-c]pyridine-5,4′-[1,3]thiazol]-2′-amine]
8	0.4	NC1=N[C@@]2(CO1)c1cc(-c3cncnc3)c(F)cc1Oc1c(F)cc(C3=CCCOC3)cc12 [Example 1039, (4S)-7′-(5,6-dihydro-2H-pyran-3-yl)-3′,5′-difluoro-2′-(5-pyrimidinyl)spiro[1,3-oxazole-4,9′-xanthen]-2-amine]
5	0.2	NC1=N[C@@]2(CS1)c1cc(-c3cccnc3)ccc1Oc1c2cc(-c2ccnc(F)c2)nc1F [Example 1030, (5S)-1-fluoro-3-(2-fluoro-4-pyridinyl)-7-(3-pyridinyl)spiro[chromeno[2,3-c]pyridine-5,4′-[1,3]thiazol]-2′-amine]
3	0.2	NC1=N[C@@]2(CS1)c1cc(-c3cccnc3F)ccc1Oc1c2cc(C2=CCCOC2)nc1F [Example 1028, (S)-3-(5,6-dihydro-2H-pyran-3-yl)-1-fluoro-7-(2-fluoropyridin-3-yl)-5′H-spiro[chromeno[2,3-c]pyridine-5,4′-thiazol]-2′-amine]
3	0.3	NC1=N[C@@]2(CS1)c1cc(-c3cccnc3)ccc1Oc1c2cc(-c2cccnc2)nc1F [Example 1031, (5S)-1-fluoro-3,7-di-3-pyridinylspiro[chromeno[2,3-c]pyridine-5,4′-[1,3]thiazol]-2′-amine]
